{"source": "patent US10760110B2", "about": "“Antibiotic testing and screening system” (priority 2017, dated 2020)", "conditions_in_all_cases": "Klebsiella pneumoniae", "key": {"[1]": {"test_system": "K. pneumoniae NVT1001 and its ΔompK35/36 and/or ΔramR mutants", "assay": "Etest MIC, OmpK35/36 loss and AcrAB-TolC overexpression (ΔramR) strains (Table 6)", "assay_type": "cell-based, Klebsiella pneumoniae", "how_it_was_run": "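MICs were read by Etest strip following the manufacturer's instructions, and values falling between standard two-fold dilutions were rounded up to the next two-fold step. Ceftazidime and cefotaxime were also tested by CLSI broth microdilution and interpreted against CLSI 2017 breakpoints; cephalothin used CLSI 2015 and moxifloxacin EUCAST 2017.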"}, "[2]": {"test_system": "K. pneumoniae NVT1001 strains with carbapenemase plasmids", "assay": "Etest MIC of β-lactams, OmpK35/36 loss, ΔramR and/or carbapenemase (Table 9)", "assay_type": "cell-based, Klebsiella pneumoniae", "how_it_was_run": "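Cloned resistance genes in pACYC177 or pACYC184 were electroporated into K. pneumoniae NVT1001. MICs were determined by Etest and rounded up to the next two-fold value. Ceftazidime and cefotaxime against the blaOXA-48 construct were also tested by CLSI broth microdilution, with breakpoints from CLSI 2017 (cephalothin CLSI 2015, moxifloxacin EUCAST 2017).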"}, "[3]": {"test_system": "K. pneumoniae NVT1001 ΔramRΔompK35/36 mutant and its revertants", "assay": "Etest MIC, ΔramRΔompK35/36 mutant and its revertants (Table 7)", "assay_type": "cell-based"}}, "note": "Like-named read-outs stand apart in the source and are kept apart here."}
{"compound": "CC(C)(O/N=C(\\C(=O)N[C@@H]1C(=O)N2C(C(=O)[O-])=C(C[n+]3ccccc3)CS[C@H]12)c1csc(N)n1)C(=O)O", "note": "[Ceftazidime]", "values": [{"measurement": "MIC", "setting": "[1]; WT, NVT1001, read-out: MIC", "value": 0.25, "unit": "µg/mL"}, {"measurement": "MIC", "setting": "[1]; Δ35, ΔompK35 mutant", "value": 0.5, "unit": "µg/mL"}, {"measurement": "MIC", "setting": "[1]; Δ35/36, ΔompK35/36 mutant", "value": 1, "unit": "µg/mL"}, {"measurement": "MIC", "setting": "[1]; Δ36, ΔompK36 mutant", "value": 0.5, "unit": "µg/mL"}, {"measurement": "MIC", "setting": "[1]; ΔramR mutant", "value": 2, "unit": "µg/mL"}, {"measurement": "MIC", "setting": "[1]; ΔramRΔ35, ΔramRΔompK35 mutant", "value": 2, "unit": "µg/mL"}, {"measurement": "MIC", "setting": "[1]; ΔramRΔ35/36, ΔramRΔompK35/36 mutant", "value": 2, "unit": "µg/mL"}, {"measurement": "MIC", "setting": "[1]; ΔramRΔ36, ΔramRΔompK36 mutant", "value": 2, "unit": "µg/mL"}, {"measurement": "MIC", "setting": "[2]; IMP-8 on pACYC177, WT (NVT1001), read-out: MIC", "value": "> 256", "unit": "µg/mL"}, {"measurement": "MIC", "setting": "[2]; IMP-8 on pACYC177, Δ35 (ΔompK35 mutant)", "value": "> 256", "unit": "µg/mL"}, {"measurement": "MIC", "setting": "[2]; IMP-8 on pACYC177, Δ35/36 (ΔompK35/36 mutant)", "value": "> 256", "unit": "µg/mL"}, {"measurement": "MIC", "setting": "[2]; IMP-8 on pACYC177, Δ36 (ΔompK36 mutant)", "value": "> 256", "unit": "µg/mL"}, {"measurement": "MIC", "setting": "[2]; IMP-8 on pACYC177, ΔramR mutant", "value": "> 256", "unit": "µg/mL"}, {"measurement": "MIC", "setting": "[2]; IMP-8 on pACYC177, ΔramRΔ35 (ΔramRΔompK35 mutant)", "value": "> 256", "unit": "µg/mL"}, {"measurement": "MIC", "setting": "[2]; IMP-8 on pACYC177, ΔramRΔ35/36 (ΔramRΔompK35/36 mutant)", "value": "> 256", "unit": "µg/mL"}, {"measurement": "MIC", "setting": "[2]; IMP-8 on pACYC177, ΔramRΔ36 (ΔramRΔompK36 mutant)", "value": "> 256", "unit": "µg/mL"}, {"measurement": "MIC", "setting": "[2]; KPC-2 on pACYC177, WT (NVT1001), read-out: MIC", "value": 16, "unit": "µg/mL"}, {"measurement": "MIC", "setting": "[2]; KPC-2 on pACYC177, Δ35 (ΔompK35 mutant)", "value": 64, "unit": "µg/mL"}, {"measurement": "MIC", "setting": "[2]; KPC-2 on pACYC177, Δ35/36 (ΔompK35/36 mutant)", "value": 256, "unit": "µg/mL"}, {"measurement": "MIC", "setting": "[2]; KPC-2 on pACYC177, Δ36 (ΔompK36 mutant)", "value": 32, "unit": "µg/mL"}, {"measurement": "MIC", "setting": "[2]; KPC-2 on pACYC177, ΔramR mutant", "value": 128, "unit": "µg/mL"}, {"measurement": "MIC", "setting": "[2]; KPC-2 on pACYC177, ΔramRΔ35 (ΔramRΔompK35 mutant)", "value": 128, "unit": "µg/mL"}, {"measurement": "MIC", "setting": "[2]; KPC-2 on pACYC177, ΔramRΔ35/36 (ΔramRΔompK35/36 mutant)", "value": 128, "unit": "µg/mL"}, {"measurement": "MIC", "setting": "[2]; KPC-2 on pACYC177, ΔramRΔ36 (ΔramRΔompK36 mutant)", "value": 128, "unit": "µg/mL"}, {"measurement": "MIC", "setting": "[2]; KPC-3 on pACYC177, WT (NVT1001), read-out: MIC", "value": 128, "unit": "µg/mL"}, {"measurement": "MIC", "setting": "[2]; KPC-3 on pACYC177, Δ35 (ΔompK35 mutant)", "value": "> 256", "unit": "µg/mL"}, {"measurement": "MIC", "setting": "[2]; KPC-3 on pACYC177, Δ35/36 (ΔompK35/36 mutant)", "value": "> 256", "unit": "µg/mL"}, {"measurement": "MIC", "setting": "[2]; KPC-3 on pACYC177, Δ36 (ΔompK36 mutant)", "value": 128, "unit": "µg/mL"}, {"measurement": "MIC", "setting": "[2]; KPC-3 on pACYC177, ΔramR mutant", "value": "> 256", "unit": "µg/mL"}, {"measurement": "MIC", "setting": "[2]; KPC-3 on pACYC177, ΔramRΔ35 (ΔramRΔompK35 mutant)", "value": "> 256", "unit": "µg/mL"}, {"measurement": "MIC", "setting": "[2]; KPC-3 on pACYC177, ΔramRΔ35/36 (ΔramRΔompK35/36 mutant)", "value": "> 256", "unit": "µg/mL"}, {"measurement": "MIC", "setting": "[2]; KPC-3 on pACYC177, ΔramRΔ36 (ΔramRΔompK36 mutant)", "value": "> 256", "unit": "µg/mL"}, {"measurement": "MIC", "setting": "[2]; NDM-1 on pACYC177, WT (NVT1001), read-out: MIC", "value": "> 256", "unit": "µg/mL"}, {"measurement": "MIC", "setting": "[2]; NDM-1 on pACYC177, Δ35 (ΔompK35 mutant)", "value": "> 256", "unit": "µg/mL"}, {"measurement": "MIC", "setting": "[2]; NDM-1 on pACYC177, Δ35/36 (ΔompK35/36 mutant)", "value": "> 256", "unit": "µg/mL"}, {"measurement": "MIC", "setting": "[2]; NDM-1 on pACYC177, Δ36 (ΔompK36 mutant)", "value": "> 256", "unit": "µg/mL"}, {"measurement": "MIC", "setting": "[2]; NDM-1 on pACYC177, ΔramR mutant", "value": "> 256", "unit": "µg/mL"}, {"measurement": "MIC", "setting": "[2]; NDM-1 on pACYC177, ΔramRΔ35 (ΔramRΔompK35 mutant)", "value": "> 256", "unit": "µg/mL"}, {"measurement": "MIC", "setting": "[2]; NDM-1 on pACYC177, ΔramRΔ35/36 (ΔramRΔompK35/36 mutant)", "value": "> 256", "unit": "µg/mL"}, {"measurement": "MIC", "setting": "[2]; NDM-1 on pACYC177, ΔramRΔ36 (ΔramRΔompK36 mutant)", "value": "> 256", "unit": "µg/mL"}, {"measurement": "MIC", "setting": "[2]; OXA-48 on pACYC177, WT (NVT1001), read-out: MIC", "value": 0.5, "unit": "µg/mL"}, {"measurement": "MIC", "setting": "[2]; OXA-48 on pACYC177, Δ35 (ΔompK35 mutant)", "value": 1, "unit": "µg/mL"}, {"measurement": "MIC", "setting": "[2]; OXA-48 on pACYC177, Δ35/36 (ΔompK35/36 mutant)", "value": 2, "unit": "µg/mL"}, {"measurement": "MIC", "setting": "[2]; OXA-48 on pACYC177, Δ36 (ΔompK36 mutant)", "value": 0.5, "unit": "µg/mL"}, {"measurement": "MIC", "setting": "[2]; OXA-48 on pACYC177, ΔramR mutant", "value": 2, "unit": "µg/mL"}, {"measurement": "MIC", "setting": "[2]; OXA-48 on pACYC177, ΔramRΔ35 (ΔramRΔompK35 mutant)", "value": 2, "unit": "µg/mL"}, {"measurement": "MIC", "setting": "[2]; OXA-48 on pACYC177, ΔramRΔ35/36 (ΔramRΔompK35/36 mutant)", "value": 2, "unit": "µg/mL"}, {"measurement": "MIC", "setting": "[2]; OXA-48 on pACYC177, ΔramRΔ36 (ΔramRΔompK36 mutant)", "value": 2, "unit": "µg/mL"}, {"measurement": "MIC", "setting": "[2]; VIM-1 on pACYC177, WT (NVT1001), read-out: MIC", "value": "> 256", "unit": "µg/mL"}, {"measurement": "MIC", "setting": "[2]; VIM-1 on pACYC177, Δ35 (ΔompK35 mutant)", "value": "> 256", "unit": "µg/mL"}, {"measurement": "MIC", "setting": "[2]; VIM-1 on pACYC177, Δ35/36 (ΔompK35/36 mutant)", "value": "> 256", "unit": "µg/mL"}, {"measurement": "MIC", "setting": "[2]; VIM-1 on pACYC177, Δ36 (ΔompK36 mutant)", "value": "> 256", "unit": "µg/mL"}, {"measurement": "MIC", "setting": "[2]; VIM-1 on pACYC177, ΔramR mutant", "value": "> 256", "unit": "µg/mL"}, {"measurement": "MIC", "setting": "[2]; VIM-1 on pACYC177, ΔramRΔ35 (ΔramRΔompK35 mutant)", "value": "> 256", "unit": "µg/mL"}, {"measurement": "MIC", "setting": "[2]; VIM-1 on pACYC177, ΔramRΔ35/36 (ΔramRΔompK35/36 mutant)", "value": "> 256", "unit": "µg/mL"}, {"measurement": "MIC", "setting": "[2]; VIM-1 on pACYC177, ΔramRΔ36 (ΔramRΔompK36 mutant)", "value": "> 256", "unit": "µg/mL"}, {"measurement": "MIC", "setting": "[2]; no supplemental plasmid, WT (NVT1001), read-out: MIC", "value": 0.25, "unit": "µg/mL"}, {"measurement": "MIC", "setting": "[2]; no supplemental plasmid, Δ35 (ΔompK35 mutant)", "value": 0.5, "unit": "µg/mL"}, {"measurement": "MIC", "setting": "[2]; no supplemental plasmid, Δ35/36 (ΔompK35/36 mutant)", "value": 1, "unit": "µg/mL"}, {"measurement": "MIC", "setting": "[2]; no supplemental plasmid, Δ36 (ΔompK36 mutant)", "value": 0.5, "unit": "µg/mL"}, {"measurement": "MIC", "setting": "[2]; no supplemental plasmid, ΔramR mutant", "value": 2, "unit": "µg/mL"}, {"measurement": "MIC", "setting": "[2]; no supplemental plasmid, ΔramRΔ35 (ΔramRΔompK35 mutant)", "value": 2, "unit": "µg/mL"}, {"measurement": "MIC", "setting": "[2]; no supplemental plasmid, ΔramRΔ35/36 (ΔramRΔompK35/36 mutant)", "value": 2, "unit": "µg/mL"}, {"measurement": "MIC", "setting": "[2]; no supplemental plasmid, ΔramRΔ36 (ΔramRΔompK36 mutant)", "value": 2, "unit": "µg/mL"}, {"measurement": "MIC", "setting": "[3]; ΔramRΔompK35/36::ompK35/36 revertant", "value": 2, "unit": "µg/mL"}, {"measurement": "MIC", "setting": "[3]; ΔramRΔompK35/36::ompK35 revertant", "value": 2, "unit": "µg/mL"}, {"measurement": "MIC", "setting": "[3]; ΔramRΔompK35/36::ompK36 revertant", "value": 2, "unit": "µg/mL"}, {"measurement": "MIC", "setting": "[3]; ΔramRΔompK35/36::ramR revertant", "value": 1, "unit": "µg/mL"}, {"measurement": "MIC", "setting": "[3]; ΔramRΔompK35/36::ramR::ompK35/36 revertant", "value": 0.25, "unit": "µg/mL"}, {"measurement": "MIC", "setting": "[3]; ΔramRΔompK35/36::ramR::ompK35 revertant", "value": 0.25, "unit": "µg/mL"}, {"measurement": "MIC", "setting": "[3]; ΔramRΔompK35/36::ramR::ompK36 revertant", "value": 1, "unit": "µg/mL"}, {"measurement": "MIC", "setting": "[3]; ΔramRΔompK35/36 mutant", "value": 2, "unit": "µg/mL"}]}
